These results are taken from patent US20250073234A1, “COMBINATION THERAPIES INCLUDING PARP1 INHIBITORS” (Cornell University, priority 2022, published 2025).

Test [1] deals with p62 (SQSTM1) in WPMY-1 cells. Put plainly: p62/SQSTM1 expression in WPMY-1 stromal fibroblasts (immunoblot, qPCR). The format is cell-based, human. The text has this: To knock out PARP-1 in WPMY-1 cells, single-guide RNA sequences targeting PARP-1 exon2 were purchased from Synthego and transduced into WPMY-1 cells with recombinant Streptococcus pyogenes Cas9 protein (Truecut Cas9 Protein v2, Thermo), using the Neon Transfection System 1 (Invitrogen) following the manufacturer's protocol and single clones were expanded and screened by protein immunoblotting. To perform AP1-A binding site editing in the SQSTM promoter in WPMY-1 cells, single-guide RNA sequences targeting the human AP1-A binding site (Synthego) was transduced into cells with a Cas9 protein and a single-stranded donor oligonucleotide (ssODN, IDT) using Neon Electroporation System. Single clones were expanded and screened for AP1-A editing by Sanger sequencing. A point mutation to disrupt the API enhancer element in the p62 promoter was introduced by Site Directed Mutagenesis (Stratagene). Knockdown of MCT1, MCT4, FOS, PARP1, PARP2, CD38, ATG5, and SIRT1-7 genes in WPMY-1 cells were achieved by siRNA transfection using Lipofectamine RNAiMAX Transfection Reagent (Invitrogen). Transient overexpression was achieved by transfection using X-tremeGENE HP transfection reagent (Roche). Transfected cells were examined 48 hours after transfection. Establishing stably GFP or RFP expressing cells was achieved by lentivirus-mediated transduction. Lentivirus were produced in HEK293T cells using X-tremeGENE HP transfection reagent (Roche). Virus-containing supernatants were collected 48, 72 and 96 hours after transfection, filtered to eliminate cells, and supplemented with 8 μg/ml polybrene. Cells were infected with three rounds of viral supernatants and selected with puromycin (3 μg/ml). For autophagy or proteasome inhibition, WPMY-1 cells were treated for 12 hours with 100 nM bafilomycin Al or 12 hours with 20 μM of MG132, respectively, or vehicle (DMSO). […] For MCT1 inhibition, WPMY-1 cells were treated for 48 hours with 10 μM of AZD3965. For cJUN inhibition, WPMY-1 cells were treated for 48 hours with 10 μM of SP600125. For calpains and caspases inhibition, WPMY-1 cells were treated for 48 hours with 1-20 μM of Calpeptin (Tocris) or z-VAD-FMK (Tocris), respectively. For protein synthesis inhibition, WPMY-1 cells were treated with 50 μg/ml of cycloheximide (Sigma). Conditioned media (CM) was generated by collecting supernatant on day 3. CM was transferred to a 15 ml BD Falcon tube and centrifuged at 1300 rpm for 10 minutes. The supernatant was sterile filtered using a […] (Millex-GV) with a 10 ml syringe barrel. The samples were stored at […] for future experiments. Fractionation of the CM was achieved using Amicon Ultra centrifugal filters (3KUltracel, Millipore). The supernatant was centrifuged at 4000 rpm for 1 hour. The supernatant fraction that was >3 kDa remained above the filter and that which was <3 kDa passed through to the lower chamber. The >3-kDa fraction was resuspended in DMEM to the pre-filtration volume.
(A western blot detects proteins with antibodies after separation by electrophoresis.)

The subject of a further test is WPMY-1 cells. Kind of test: qPCR of CAF / stromal activation markers in WPMY-1 cells. The format is cell-based, human. The text has this:
To knock out PARP-1 in WPMY-1 cells, single-guide RNA sequences targeting PARP-1 exon2 were purchased from Synthego and transduced into WPMY-1 cells with recombinant Streptococcus pyogenes Cas9 protein (Truecut Cas9 Protein v2, Thermo), using the Neon Transfection System 1 (Invitrogen) following the manufacturer's protocol and single clones were expanded and screened by protein immunoblotting. To perform AP1-A binding site editing in the SQSTM promoter in WPMY-1 cells, single-guide RNA sequences targeting the human AP1-A binding site (Synthego) was transduced into cells with a Cas9 protein and a single-stranded donor oligonucleotide (ssODN, IDT) using Neon Electroporation System. Single clones were expanded and screened for AP1-A editing by Sanger sequencing. A point mutation to disrupt the API enhancer element in the p62 promoter was introduced by Site Directed Mutagenesis (Stratagene). Knockdown of MCT1, MCT4, FOS, PARP1, PARP2, CD38, ATG5, and SIRT1-7 genes in WPMY-1 cells were achieved by siRNA transfection using Lipofectamine RNAiMAX Transfection Reagent (Invitrogen). Transient overexpression was achieved by transfection using X-tremeGENE HP transfection reagent (Roche). Transfected cells were examined 48 hours after transfection. Establishing stably GFP or RFP expressing cells was achieved by lentivirus-mediated transduction. Lentivirus were produced in HEK293T cells using X-tremeGENE HP transfection reagent (Roche). Virus-containing supernatants were collected 48, 72 and 96 hours after transfection, filtered to eliminate cells, and supplemented with 8 μg/ml polybrene. Cells were infected with three rounds of viral supernatants and selected with puromycin (3 μg/ml). For autophagy or proteasome inhibition, WPMY-1 cells were treated for 12 hours with 100 nM bafilomycin Al or 12 hours with 20 μM of MG132, respectively, or vehicle (DMSO). For PARP1 inhibition, WPMY-1 cells were treated with PJ34 (2 days) or Olaparib (4 days) at the doses indicated in each experiment. For MCT1 inhibition, WPMY-1 cells were treated for 48 hours with 10 μM of AZD3965. For cJUN inhibition, WPMY-1 cells were treated for 48 hours with 10 μM of SP600125. For calpains and caspases inhibition, WPMY-1 cells were treated for 48 hours with 1-20 μM of Calpeptin (Tocris) or z-VAD-FMK (Tocris), respectively. For protein synthesis inhibition, WPMY-1 cells were treated with 50 μg/ml of cycloheximide (Sigma). Conditioned media (CM) was generated by collecting supernatant on day 3. CM was transferred to a 15 ml BD Falcon tube and centrifuged at 1300 rpm for 10 minutes. The supernatant was sterile filtered using a […] (Millex-GV) with a 10 ml syringe barrel. The samples were stored at […] for future experiments. Fractionation of the CM was achieved using Amicon Ultra centrifugal filters (3KUltracel, Millipore). The supernatant was centrifuged at 4000 rpm for 1 hour. The supernatant fraction that was >3 kDa remained above the filter and that which was <3 kDa passed through to the lower chamber. The >3-kDa fraction was resuspended in DMEM to the pre-filtration volume.
Total RNA from mouse tissues, cells and cultured organoids was extracted using the TRIZOL reagent (Invitrogen) and the RNeasy Mini Kit (QIAGEN), followed by DNase treatment. After quantification using a Nanodrop 1000 spectrophotometer (Thermo Scientific), RNA was either processed for RNA-seq or reverse-transcribed using random primers and MultiScribe Reverse Transcriptase (Applied Biosystems). Gene expression was analyzed by amplifying 20 ng of the complementary DNA using the CFX96 Real Time PCR Detection System with SYBR Green Master Mix (BioRad) and primers described in Table S1. The amplification parameters were set at 95° C. for 30 seconds, 58° C. for 30 seconds, and 72° C. for 30 seconds (40 cycles total). Gene expression values for each sample were normalized to the 18s RNA.
On the technique in general: Quantitative PCR measures a nucleic acid by following its amplification.

Each structure is given as a SMILES string.

In the case of `NC(=O)c1ccc[n+]([C@@H]2O[C@H](COP(=O)([O-])OP(=O)(O)OC[C@H]3O[C@@H](n4cnc5c(N)ncnc54)[C@H](O)[C@@H]3O)[C@@H](O)[C@H]2O)c1` [NAD^+], the “rescue of lactate-induced reduction in p62” value in test [1] (lactate-treated WPMY-1 cells, 48 h, NAD 150 μM, NR 200 μM) is on record as “completely rescued the lactate-induced reduction in p62”. Also, the “lactate-induced expression of CAF activation markers” value in the test on WPMY-1 cells (lactate plus NAD+, 48 h) was “reverted”.
Take `O=C(c1cc(Cc2n[nH]c(=O)c3ccccc23)ccc1F)N1CCN(C(=O)C2CC2)CC1` [Olaparib]: the “SQSTM1 mRNA levels” value in test [1] (WPMY-1 cells, basal and ADT conditions) is “reduced SQSTM1 mRNA levels”. Moreover, in test [1] (WPMY-1 cells, PJ34 24 h, Olaparib 48 h), the “p62 expression (protein, SQSTM1 mRNA)” value is “reduced the expression of p62 in a dose-dependent manner”. For the same compound, the “CAF markers (ACTA2, SFRP1, TGFB, MMP9, HA synthases)” value in the test with WPMY-1 cells (Olaparib, basal and ADT conditions) is recorded as “upregulated CAF markers”. Further, in the test on WPMY-1 cells (basal and ADT conditions), the “Has1 and Has3 expression” value is on record as “upregulated”; the Tgfb1 levels result was “increased levels of Tgfb1”. The SPINK1 levels entry in the test with WPMY-1 cells (human prostate cells, ADT conditions) is on record as “highly upregulated”.
